# Laboratory results taken from patent US4968672A, “Adenosine receptor prodrugs” (priority 1987, dated 1990).
# Counter-ions that a name gives are not always drawn. Like-named read-outs stand apart in the source and are kept apart here.
# How the values were obtained:
# A1 adenosine receptors = molecular target: T1, A1 adenosine receptors (Rattus norvegicus, UniProt P25099); experiment: membrane binding assay at A1 adenosine receptors (Tables 1 and 2)
# T1 construct: rat cerebral cortex membranes; from tissue; host or cells: rat cerebral cortex membranes
# T1 sequence (P25099 1-326): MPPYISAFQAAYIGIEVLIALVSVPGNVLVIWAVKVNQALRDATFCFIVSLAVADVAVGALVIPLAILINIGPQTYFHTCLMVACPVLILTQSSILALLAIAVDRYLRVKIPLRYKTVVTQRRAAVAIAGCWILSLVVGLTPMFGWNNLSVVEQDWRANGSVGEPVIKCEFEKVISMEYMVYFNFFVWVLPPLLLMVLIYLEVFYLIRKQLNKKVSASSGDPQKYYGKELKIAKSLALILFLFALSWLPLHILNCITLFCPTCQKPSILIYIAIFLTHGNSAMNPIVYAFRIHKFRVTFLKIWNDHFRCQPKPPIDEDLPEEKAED
# Text: Table 2 lists prodrugs (including Routes A and B of FIG. 2) and chemical intermediates, based on xanthine and adenosine functionalized congener and the method of synthesis. The potency of each compound at A1 adenosine receptors is indicated by the Ki (inverse relationship to potency) in a membrane binding assay.
# A2 receptor = molecular target: T2, A2 receptor (Homo sapiens, UniProt P29274); experiment: antagonism of NECA-induced stimulation of adenylate cyclase activity in human platelet membranes; format: biochemical; details: antagonism of NECA-stimulated adenylate cyclase, human platelet membranes; means with 95% confidence limits from 3 experiments; read-out: A2 receptor KB
# T2 construct: human platetlet membranes; from tissue; host or cells: human platelet membranes
# Protocol: (§1) Measurements of the potencies of the xanthines as antagonists of NECA-induced stimulation of adenylate cyclase activity in human platetlet membranes and as inhibitors of [^3 H]PIA binding to rat cerebral cortex membranes were carried out as reported previously.
# A1 receptor = molecular target: T3, A1 receptor (Rattus norvegicus, UniProt P25099); experiment: inhibition of [3H]PIA binding to rat cerebral cortex membranes
# T3 construct: rat cerebral cortex membranes; from tissue; host or cells: rat cerebral cortex membranes
# T3 sequence (P25099 1-326): T1 sequence (P25099 1-326)
# Protocol: as §1
# [1] = Table 1, prodrug before cleavage, read-out: Ki(nM) at A1 Before Cleavage
# T2 sequence (P29274 whole entry): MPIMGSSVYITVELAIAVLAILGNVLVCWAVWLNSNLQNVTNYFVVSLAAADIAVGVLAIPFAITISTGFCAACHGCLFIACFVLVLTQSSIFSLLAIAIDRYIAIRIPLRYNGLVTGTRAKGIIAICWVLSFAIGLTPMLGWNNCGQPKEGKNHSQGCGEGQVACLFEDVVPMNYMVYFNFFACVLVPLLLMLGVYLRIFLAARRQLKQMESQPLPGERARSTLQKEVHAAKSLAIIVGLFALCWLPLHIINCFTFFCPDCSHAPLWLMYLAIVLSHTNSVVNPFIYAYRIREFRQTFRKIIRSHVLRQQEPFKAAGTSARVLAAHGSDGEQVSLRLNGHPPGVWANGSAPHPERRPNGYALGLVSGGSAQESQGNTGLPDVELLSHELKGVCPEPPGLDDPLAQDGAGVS
SMILES,"Ki (A1 adenosine receptors; Table 2, read-out: Ki (A1(nM))) [nM]",further results
CCCn1c(=O)c2[nH]c(-c3ccc(OCC(=O)NCCNC(=O)[C@H](CC(=O)O)NC(=O)OC(C)(C)C)cc3)nc2n(CCC)c1=O [BocAspXAC],30,
CCCn1c(=O)c2[nH]c(-c3ccc(OCC(=O)NCCNC(=O)CNC(=O)CNC(=O)CN)cc3)nc2n(CCC)c1=O [HBr.HGlyGlyGlyXAC],10,
"CCCn1c(=O)c2[nH]c(-c3ccc(OCC(=O)NCCNC(=O)CC[C@H](NC(=O)OC(C)(C)C)C(=O)OCc4ccccc4)cc3)nc2n(CCC)c1=O [BocGlu(XAC)OBzl, Boc-glutamyl(gamma-XAC)-alpha-benzyl ester]",18,
CCCn1c(=O)c2[nH]c(-c3ccc(OCC(=O)NCCNC(=O)CNC(=O)CNC(=O)OCc4ccccc4)cc3)nc2n(CCC)c1=O [CbzGlyGlyXAC],3.1,
CCCn1c(=O)c2[nH]c(-c3ccc(OCC(=O)NCCNC(=O)[C@H](CC(=O)OCc4ccccc4)NC(=O)OC(C)(C)C)cc3)nc2n(CCC)c1=O [BocAsp(OBzl)XAC],150,Ki (A1 adenosine receptors; [1]): 150 nM
CCCn1c(=O)c2[nH]c(-c3ccc(OCC(=O)NCCOC(C)=O)cc3)nc2n(CCC)c1=O [Compound 40],12,
Cn1c(=O)c2[nH]c(-c3ccccc3)nc2n(C)c1=O [Compound 51a],,Kb (A2 receptor): 1900 nM
CCn1c(=O)c2[nH]c(-c3ccccc3)nc2n(CC)c1=O [Compound 51b],,Kb (A2 receptor): 210 nM
CCCn1c(=O)c2[nH]c(-c3ccc(OCC(=O)NCCNC(=O)[C@@H](N)C(C)C)cc3)nc2n(CCC)c1=O [HValXAC],,"Ki (A1 adenosine receptors; Table 1, liberated product, read-out: Ki(nM) at A1 After Cleavage): 3 nM"
CCn1c(=O)c2[nH]c(-c3ccc(OCC(=O)N(C)CCN(C)C)cc3)nc2n(CC)c1=O [tri-methyl substition of 56b],,Ki (A1 receptor; read-out: Ki (A1-potency)): 1.5 nM
CCCn1c(=O)c2[nH]c(-c3ccc(OCC(=O)NCCNC(=O)[C@H](CC(C)C)NC(C)=O)cc3)nc2n(CCC)c1=O [AcLeuXAC],20,
CCCn1c(=O)c2[nH]c(-c3ccc(OCC(=O)NCCNC(=O)[C@@H](NC(=O)[C@@H](N)Cc4ccc(O)cc4)C(C)C)cc3)nc2n(CCC)c1=O [Compound 26],,Ki (A1 adenosine receptors): 3 nM
CCCn1c(=O)c2[nH]c(-c3ccc(OCC(=O)NCCNC(=O)CNC(=O)[C@H](Cc4ccc(O)cc4)NC(=O)OCc4ccccc4)cc3)nc2n(CCC)c1=O [CbzTyrGlyXAC],4,Ki (A1 adenosine receptors; [1]): 4 nM
"CCCCCCCCCCCCCC(=O)OCC(COC(=O)CCCCCCCCCCCCC)OC(=O)COc1ccc(-c2nc3c([nH]2)c(=O)n(CCC)c(=O)n3CCC)cc1 [1,3-dimyristin-(2-XCC), 1,3-Dimyristin-2-XCC]",104 ± 7.7,Ki (A1 adenosine receptors; [1]): 104 nM
Cc1ccc(NC(=O)COc2ccc(-c3nc4c([nH]3)c(=O)n(C)c(=O)n4C)cc2)cc1 [Compound 57a],,"Ki (A1 receptor; [3H]PIA, rat cerebral cortex membranes, means from two experiments, read-out: A1 receptor Ki): 27 nM"
CCCCCCCCCCCCCC(=O)NCCNC(=O)COc1ccc(-c2nc3c([nH]2)c(=O)n(CCC)c(=O)n3CCC)cc1 [drawing 10],,Ki (A1 adenosine receptors; [1]): 49 nM
CCCn1c(=O)c2[nH]c(-c3ccc(OCC(=O)NCCNC(=O)[C@@H](NC(=O)[C@H](Cc4ccc(OC(C)=O)cc4)NC(C)=O)C(C)C)cc3)nc2n(CCC)c1=O [AcTyr(OAc)ValXAC],5,Ki (A1 adenosine receptors; [1]): 5 nM

# Continued, in another order:
"Ki (A1 adenosine receptors; Table 2, read-out: Ki (A1(nM))) [nM]",SMILES,further results
85,"CCCCCCCC/C=C/CCCCCCCC(=O)OCCNC(=O)COc1ccc(-c2nc3c([nH]2)c(=O)n(CCC)c(=O)n3CCC)cc1 [O-elaidoyl-XHC, Elaidic ester of hydroxy congener]",
4,CCCn1c(=O)c2[nH]c(-c3ccc(OCC(=O)NCCNC(=O)[C@H](N)Cc4ccc(N)c(I)c4)cc3)nc2n(CCC)c1=O [TFA.HD(p-NH2 -m-I)PheXAC],
2.3,CCCn1c(=O)c2[nH]c(-c3ccc(OCC(=O)NCCNC(=O)[C@H](N)Cc4ccc(N)cc4)cc3)nc2n(CCC)c1=O [TFA.HD(p-NH2)PheXAC],
8,CCCn1c(=O)c2[nH]c(-c3ccc(OCC(=O)NCCNC(=O)OCc4ccccc4)cc3)nc2n(CCC)c1=O [NCbzXAC],
1,"CCCCCCCCCCCCCCCCCC(=O)NCCNC(=O)Cc1ccc(NC(=O)Cc2ccc(Nc3ncnc4c3ncn4[C@@H]3O[C@H](CO)[C@@H](O)[C@H]3O)cc2)cc1 [N-stearoyl-ADAC, Stearoyl-ADAC]",
0.5,CCCCC/C=C\C/C=C\CCCCCCCC(=O)NCCNC(=O)Cc1ccc(NC(=O)Cc2ccc(Nc3ncnc4c3ncn4[C@@H]3O[C@H](CO)[C@@H](O)[C@H]3O)cc2)cc1 [N-linoleyl-ADAC],
